Test results: US11505576B2, “Polypeptides based on a scaffold” (AFFIBODY AB, priority 2018, dated 2022)

Experiments:
C4 = assay: Kinetic analysis using surface plasmon resonance (Biacore T200), immobilized C4; format: binding; details: Table 7; MGSSHHHHHHGSS-[Y#####]-A
Protocol: (§1) Kinetic constants (ka and kd) and affinities (KD) were determined for His6-tagged Y variants using a Biacore T200 instrument (GE Healthcare). Target proteins C4, IL-6 and insulin, respectively, were immobilized in separate flow cells on the carboxylated dextran layer of different CM5 chip surfaces (GE Healthcare). Immobilization was performed using amine coupling chemistry according to the manufacturer's protocol and PBS pH 7.4 supplemented with 0.1 Tween20 (PBST 0.1%) as running buffer. The ligand immobilization levels on the surfaces were 3280-8830 RU for C4, 495-1184 RU for IL-6, and 270-282 RU for insulin. One flow cell surface on each chip was activated and deactivated for use as blank during analyte injections. In the kinetic experiment, PBST 0.1% was used as running buffer at a flow rate of 30 μl/min. The analytes, i.e. Y variants, were each diluted in PBST 0.1 buffer at concentrations of 1000, 500, 100, 50 and 10 nM and injected for 5 min, followed by dissociation in running buffer for 3 min. After dissociation, the surfaces were regenerated with one injection of 30 μl 10 mM HCl. Kinetic constants were calculated from the sensorgrams using the Langmuir 1:1 model of Biacore T200 Evaluation software 2.0 (GE Healthcare).
(§2) Produced Y variants were subjected to CD and SPR analyses according to the methods described in Example 1.
The Y variants were cloned, produced and characterized according to the general methods described in Example 1. Produced Y variants with point mutations and/or N-terminal or C-terminal extensions were subjected to CD and SPR analyses as described in Example 1.
(§3) Produced Y variants were subjected to CD and SPR analyses according to the methods described in Example 1. In addition, CD spectra of selected IL-6 binding variants were also recorded at 60, 70, 80 and 90° C.

[1] = Circular dichroism spectroscopy analysis (CD spectra, variable temperature measurement, refolding); format: physicochemical; details: for Tm: Table 7, MGSSHHHHHHGSS-[Y#####]-A
Method in brief: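 Y variants at 0.5 mg/ml in PBS were scanned from 250 to 195 nm at 20° C. in a 1 mm cell. Tm came from the 221 nm signal during heating from 20 to 90° C. at 5° C./min, and a second 20° C. spectrum after heating assessed refolding. Selected IL-6 binders were also recorded at 60, 70, 80 and 90° C.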

[2] = Fraction of soluble product on expression in E. coli, estimated from SDS-PAGE; format: physicochemical; details: Table 7; Ylib002Naive.I selection; MGSSHHHHHHGSS-[Y#####]-A
Method in brief: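 E. coli T7E2 cultures with 50 μg/ml kanamycin were grown at 30-37 °C (EnPresso), induced with 0.5 mM IPTG at OD600 ~10 and harvested after 16 h. Alternatively, cultures were grown at 37 °C in TSB-YE, induced with 0.2 mM IPTG at OD600=2 and harvested after 5 h. Soluble and insoluble fractions were estimated by SDS-PAGE.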

IL-6 = biological target: T1, IL-6 (Homo sapiens, UniProt P05231); assay: Kinetic analysis using surface plasmon resonance (Biacore T200), immobilized IL-6; format: binding; details: Table 7; MGSSHHHHHHGSS-[Y#####]-A
T1 construct: purchased R&D Systems 206-IL-200/CF
Protocol: as §1, §2, §3
The Y variants were cloned, produced and characterized according to the general methods described in Example 1. Produced Y variants with point mutations were subjected to CD and SPR analyses as described in Example 1. In addition, CD spectra of the IL-6 binding variants were also recorded at 60, 70, 80 and 90° C.

T1 sequence (P05231 30-212): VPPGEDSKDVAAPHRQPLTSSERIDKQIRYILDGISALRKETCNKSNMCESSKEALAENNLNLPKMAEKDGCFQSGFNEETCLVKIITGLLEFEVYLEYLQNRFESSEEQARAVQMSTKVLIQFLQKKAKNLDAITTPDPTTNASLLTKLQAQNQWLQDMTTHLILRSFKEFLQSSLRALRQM

| Kd (C4) [nM] | kd (C4) [s⁻¹] | Kd (IL-6) [nM] | ka (IL-6) [M⁻¹ s⁻¹] | kd (IL-6) [s⁻¹] | Substance | ka (C4) [M⁻¹ s⁻¹] | Tm [1] [°C] | Estimated soluble fraction [2] [%] | Structure at elevated temperature ([1]; CD spectra recorded at 60, 70, 80 and 90° C.) |
| --- | --- | --- | --- | --- | --- | --- | --- | --- | --- |
| 62 | 0.0017 |  |  |  | Y00792: C4 binding Y variant from Ylib002Naive.I, SEQ ID NO:32 (LAEAKEAAIAELDSKGVGADLIKKIQQASSVEGVQFWKQEILAQLPA; Engineered C4 binding Y variant) | 27000 | 58 | 100 |  |
| 2200 | 0.21 |  |  |  | Y02303: C4 binding Y variant from Ylib002Naive.I, SEQ ID NO:34 (LAEAKEAAIAELDSKGVGAEEIKWIQNAWSVEGVQIMKQQILAELPA; Engineered C4 binding Y variant) | 96000 | 43 | 100 |  |
| 70 | 0.0025 |  |  |  | Y02309: C4 binding Y variant from Ylib002Naive.I, SEQ ID NO:35 (LAEAKEAAIAELDSKGVGADLIKKIQKAESVEGVQFWKQEILATLPA; Engineered C4 binding Y variant) | 36000 | 56 | 100 |  |
| 48 | 0.0046 |  |  |  | Y02330: C4 binding Y variant from Ylib002Naive.I, SEQ ID NO:37 (LAEAKEAAIAELDSKGVGAELIKKIQHAESVEGVQFWKQEILAYLPA; Engineered C4 binding Y variant) | 96000 | 49 | 100 |  |
| 1900 | 0.81 |  |  |  | Y02337: C4 binding Y variant from Ylib002Naive.I, SEQ ID NO:38 (LAEAKEAAIAELDSKGVGAAEIKWIQHASTVEGVQGRKQQILAELPA; Engineered C4 binding Y variant) | 420000 | 31 | 100 |  |
| 16 | 0.0014 |  |  |  | Y02358: C4 binding Y variant from Ylib002Naive.I, SEQ ID NO:39 (LAEAKEAAIAELDSKGVGADDIKLIQDAPSVEGVQEIKQFILAQLPA; Engineered C4 binding Y variant) | 90000 | 51 | 100 |  |
|  |  | 61 | 90000 | 0.0055 | Y02444: IL-6 binding Y variant from Ylib002Naive.I, SEQ ID NO:75 (LAEAKEAAIAELDSKGVGAVEIKQIQEALLVEIVQLLKQAILAVLPA; Engineered IL-6 binding Y variant) |  |  | 100 | partial structure also at temperatures up to 90 °C |
